Test results published in patent US7759339B2, “Hydroxysteroid dehydrogenase inhibitors” (Takeda San Diego, Inc., priority 2005, dated 2010).

Biological target: T1, 11b-HSD1 (Homo sapiens, UniProt P28845)
T1 construct: made in house; host or cells: E. coli DH10b-Tir
Assay: in vitro enzymatic 11b-HSD1 dehydrogenase activity assay
Type: biochemical
Conditions: 11b-HSD1 dehydrogenase assay; 10 μM each of cortisol and NADP+, 50 nM enzyme, 60 minutes at room temperature; reference point for this assay
Procedure: Provided below is an in vitro enzymatic 11b-HSD1 dehydrogenase activity assay for activity against 11b-HSD1.
The inhibitory properties of compounds relative to 11b-HSD1 may be determined using a white 384-well-plate format under the following reaction conditions: 50 mM Tris pH 7.5, 150 mM NaCl, 0.1 mM EDTA, 0.01% Brij35, 10 μM each of cortisol and NADP^+, 1% DMSO. Reaction product may be determined quantitatively by fluorescence intensity using a fluorescence plate reader (Molecular Devices Gemini) with a 340 nm excitation wavelength and a 460 nm emission wavelength.
The assay reaction may be initiated as follows: 4 μl buffer containing 25 μM cortisol and 25 μM NADP^+ was added to each well of the plate, followed by the addition of 2 μl of inhibitor (2 fold serial dilutions for 11 data points for each inhibitor) containing 5% DMSO. 4 μl of 125 nM 11b-HSD1 enzyme solution may be added to initiate the reaction (final enzyme concentrations was 50 nM). Fluorescence intensities of the resulting reaction mixtures may be measured after 60 minutes incubation at room temperature.
IC50 values may be calculated by non-linear curve fitting of the compound concentrations and fluorescence intensities to the standard IC50 equation.

T1 sequence (P28845 24-292): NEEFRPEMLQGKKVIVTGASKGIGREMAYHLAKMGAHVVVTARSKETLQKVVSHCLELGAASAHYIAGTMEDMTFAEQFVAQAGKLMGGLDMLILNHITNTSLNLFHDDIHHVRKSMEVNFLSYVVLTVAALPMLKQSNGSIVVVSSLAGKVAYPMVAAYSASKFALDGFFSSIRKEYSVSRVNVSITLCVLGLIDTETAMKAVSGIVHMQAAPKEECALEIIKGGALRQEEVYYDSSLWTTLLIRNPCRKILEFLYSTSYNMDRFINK

Structure (SMILES): CCN(CC)C(=O)Cc1csc(NS(=O)(=O)c2cccc(Cl)c2C)n1 [BVT14225]
- IC50: 0.5 µM
